{"source": "paper PMC10810011", "about": "(Expert opinion on drug delivery, 2023)", "key": {"beta1 adrenergic": {"biological_target": "beta1 adrenergic (Homo sapiens, UniProt P08588)", "sequence (P08588 whole entry)": "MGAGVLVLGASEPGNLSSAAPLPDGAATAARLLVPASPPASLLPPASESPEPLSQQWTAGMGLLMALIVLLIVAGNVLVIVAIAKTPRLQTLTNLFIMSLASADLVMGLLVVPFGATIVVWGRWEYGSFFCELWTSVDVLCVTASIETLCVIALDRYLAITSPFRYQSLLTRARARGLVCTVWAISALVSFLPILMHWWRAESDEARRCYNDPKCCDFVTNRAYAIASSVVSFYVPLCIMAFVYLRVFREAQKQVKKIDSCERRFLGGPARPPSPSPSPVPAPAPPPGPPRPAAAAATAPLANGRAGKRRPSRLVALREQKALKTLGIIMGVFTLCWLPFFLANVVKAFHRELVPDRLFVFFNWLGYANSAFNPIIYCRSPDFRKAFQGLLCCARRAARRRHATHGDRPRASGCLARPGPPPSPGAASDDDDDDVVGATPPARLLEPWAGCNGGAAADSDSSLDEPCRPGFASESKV", "experiment": "InVEST radioligand filter binding, beta1 adrenergic", "settings": "M13 20 μM, 100 = no effect"}, "D3 dopamine": {"biological_target": "D3 dopamine (Homo sapiens, UniProt P35462)", "sequence (P35462 whole entry)": "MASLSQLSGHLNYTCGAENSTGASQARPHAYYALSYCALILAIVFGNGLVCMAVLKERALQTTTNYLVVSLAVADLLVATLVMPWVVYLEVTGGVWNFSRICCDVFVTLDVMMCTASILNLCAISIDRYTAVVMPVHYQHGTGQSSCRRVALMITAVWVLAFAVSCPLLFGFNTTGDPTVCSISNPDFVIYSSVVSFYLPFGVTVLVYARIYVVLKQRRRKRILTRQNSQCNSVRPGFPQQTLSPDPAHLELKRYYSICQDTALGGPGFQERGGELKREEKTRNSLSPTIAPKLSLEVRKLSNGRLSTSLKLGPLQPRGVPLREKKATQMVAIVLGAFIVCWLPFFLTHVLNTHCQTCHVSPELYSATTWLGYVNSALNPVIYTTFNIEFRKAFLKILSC", "experiment": "InVEST radioligand filter binding, D3 dopamine", "settings": "M13 20 μM, 100 = no effect"}, "Muscarinic M1": {"biological_target": "Muscarinic M1 (Homo sapiens, UniProt P11229)", "sequence (P11229 whole entry)": "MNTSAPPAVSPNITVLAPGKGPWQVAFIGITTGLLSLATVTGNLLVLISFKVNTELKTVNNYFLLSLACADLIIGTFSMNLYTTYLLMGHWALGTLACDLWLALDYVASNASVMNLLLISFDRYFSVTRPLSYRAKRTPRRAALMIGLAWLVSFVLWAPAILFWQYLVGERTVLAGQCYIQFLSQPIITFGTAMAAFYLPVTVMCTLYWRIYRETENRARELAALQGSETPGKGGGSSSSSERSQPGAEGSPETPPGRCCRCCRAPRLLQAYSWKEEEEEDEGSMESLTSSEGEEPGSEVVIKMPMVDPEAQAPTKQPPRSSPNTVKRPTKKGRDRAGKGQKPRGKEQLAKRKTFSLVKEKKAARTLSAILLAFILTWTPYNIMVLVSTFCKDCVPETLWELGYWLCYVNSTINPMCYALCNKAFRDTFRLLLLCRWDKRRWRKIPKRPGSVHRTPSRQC", "assay_type": "binding", "settings": "M13 20 μM, 100 = no effect"}, "Muscarinic M2": {"biological_target": "T1, Muscarinic M2 (Homo sapiens, UniProt P08172)", "T1 sequence (P08172 1-466)": "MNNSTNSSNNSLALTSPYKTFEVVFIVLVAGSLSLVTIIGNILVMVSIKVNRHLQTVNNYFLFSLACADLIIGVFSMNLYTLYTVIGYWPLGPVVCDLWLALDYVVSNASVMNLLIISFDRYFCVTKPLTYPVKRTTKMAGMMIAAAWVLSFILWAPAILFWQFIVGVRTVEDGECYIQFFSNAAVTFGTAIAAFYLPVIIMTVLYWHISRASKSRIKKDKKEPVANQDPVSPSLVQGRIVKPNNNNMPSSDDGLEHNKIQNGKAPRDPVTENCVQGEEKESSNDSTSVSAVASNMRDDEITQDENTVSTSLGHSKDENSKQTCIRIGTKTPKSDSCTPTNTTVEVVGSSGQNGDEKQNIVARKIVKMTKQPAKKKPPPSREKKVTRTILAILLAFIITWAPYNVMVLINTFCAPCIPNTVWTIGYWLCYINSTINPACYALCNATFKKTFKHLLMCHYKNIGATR", "experiment": "InVEST radioligand filter binding, Muscarinic M2", "settings": "M13 20 μM, 100 = no effect"}, "Opioid mu": {"biological_target": "Opioid mu (Homo sapiens, UniProt P35372)", "sequence (P35372 whole entry)": "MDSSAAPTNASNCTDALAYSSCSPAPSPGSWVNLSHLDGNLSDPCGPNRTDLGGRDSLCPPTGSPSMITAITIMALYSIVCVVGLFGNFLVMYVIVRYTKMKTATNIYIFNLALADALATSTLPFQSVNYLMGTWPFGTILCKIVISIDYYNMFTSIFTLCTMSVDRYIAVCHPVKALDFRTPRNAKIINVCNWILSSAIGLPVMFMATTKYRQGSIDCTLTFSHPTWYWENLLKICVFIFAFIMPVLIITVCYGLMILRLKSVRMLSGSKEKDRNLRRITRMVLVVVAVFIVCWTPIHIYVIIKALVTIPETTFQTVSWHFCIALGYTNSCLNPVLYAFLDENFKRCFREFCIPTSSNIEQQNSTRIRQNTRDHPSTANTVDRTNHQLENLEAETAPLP", "experiment": "InVEST radioligand filter binding, Opioid mu", "settings": "M13 20 μM, 100 = no effect"}, "Opioid kappa": {"biological_target": "Opioid kappa (Homo sapiens, UniProt P41145)", "sequence (P41145 whole entry)": "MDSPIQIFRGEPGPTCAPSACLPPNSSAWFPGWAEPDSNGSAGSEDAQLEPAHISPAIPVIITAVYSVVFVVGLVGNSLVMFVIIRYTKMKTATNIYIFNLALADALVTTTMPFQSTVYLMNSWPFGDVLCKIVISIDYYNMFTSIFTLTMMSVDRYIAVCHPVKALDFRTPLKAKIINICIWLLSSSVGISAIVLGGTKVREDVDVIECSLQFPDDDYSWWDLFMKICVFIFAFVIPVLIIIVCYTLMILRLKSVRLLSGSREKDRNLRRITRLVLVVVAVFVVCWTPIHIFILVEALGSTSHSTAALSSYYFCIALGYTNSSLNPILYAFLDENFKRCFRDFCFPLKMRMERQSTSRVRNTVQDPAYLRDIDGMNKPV", "experiment": "InVEST radioligand filter binding, Opioid kappa", "settings": "M13 20 μM, 100 = no effect"}, "5-HT1A": {"biological_target": "5-HT1A (Homo sapiens, UniProt P08908)", "sequence (P08908 whole entry)": "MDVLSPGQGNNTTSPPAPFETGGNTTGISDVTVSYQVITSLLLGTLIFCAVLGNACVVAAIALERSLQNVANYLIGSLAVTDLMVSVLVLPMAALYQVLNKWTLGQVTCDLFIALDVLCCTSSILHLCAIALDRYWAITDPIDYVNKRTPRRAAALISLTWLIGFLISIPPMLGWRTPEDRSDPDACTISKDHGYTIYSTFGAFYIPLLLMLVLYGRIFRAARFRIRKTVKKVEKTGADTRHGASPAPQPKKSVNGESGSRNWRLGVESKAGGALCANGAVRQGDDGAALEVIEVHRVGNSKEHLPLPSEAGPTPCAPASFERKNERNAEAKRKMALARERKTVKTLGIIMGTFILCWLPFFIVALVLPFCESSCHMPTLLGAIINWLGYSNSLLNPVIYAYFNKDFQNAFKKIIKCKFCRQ", "experiment": "InVEST radioligand filter binding, 5-HT1A", "settings": "M13 20 μM, 100 = no effect"}, "5-HT2A": {"biological_target": "5-HT2A (Homo sapiens, UniProt P28223)", "sequence (P28223 whole entry)": "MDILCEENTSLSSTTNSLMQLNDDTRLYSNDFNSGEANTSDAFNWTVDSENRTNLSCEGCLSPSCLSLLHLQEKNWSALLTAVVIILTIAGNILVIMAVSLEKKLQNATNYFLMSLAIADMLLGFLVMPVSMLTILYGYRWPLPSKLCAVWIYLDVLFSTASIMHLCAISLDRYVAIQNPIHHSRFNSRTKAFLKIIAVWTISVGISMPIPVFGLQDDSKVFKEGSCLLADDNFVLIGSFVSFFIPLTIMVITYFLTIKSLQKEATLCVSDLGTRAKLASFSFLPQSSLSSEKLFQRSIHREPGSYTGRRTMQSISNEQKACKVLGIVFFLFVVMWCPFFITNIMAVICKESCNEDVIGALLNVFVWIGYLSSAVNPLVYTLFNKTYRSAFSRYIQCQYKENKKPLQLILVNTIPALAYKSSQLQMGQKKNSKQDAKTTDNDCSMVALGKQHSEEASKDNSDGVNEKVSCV", "experiment": "InVEST radioligand filter binding, 5-HT2A", "settings": "M13 20 μM, 100 = no effect"}, "[1]": {"experiment": "Chemical stability in acidic PBS", "assay_type": "physicochemical", "settings": "acidic PBS pH 5.0 or 3.0, 37 °C, 2 h, HPLC"}, "[2]": {"experiment": "Kinetic solubility in pure water", "assay_type": "physicochemical", "settings": "room temperature, 24 h"}, "Thermodynamic": {"experiment": "Thermodynamic", "assay_type": "physicochemical", "settings": "pure water, room temperature, 24 h"}, "Log D7.4 shake-flask": {"experiment": "Log D7.4 shake-flask", "assay_type": "physicochemical", "settings": "1-octanol/phosphate buffer pH 7.4, shake-flask, room temperature"}, "pKa determination": {"experiment": "pKa determination", "assay_type": "physicochemical", "settings": "UV metric at pH 2–12"}, "HIEC-6 cells": {"system": "HIEC-6 cells", "experiment": "MTT cytotoxicity, 2D HIEC-6", "assay_type": "cell-based, human", "settings": "HIEC-6 (normal intestinal), 24 h"}, "HCT-116 cells": {"system": "HCT-116 cells", "experiment": "MTT cytotoxicity, 2D HCT-116", "assay_type": "cell-based, human", "settings": "24 h"}, "[3]": {"system": "HC-CSC (human colon cancer stem cells)", "experiment": "MTT cytotoxicity, 2D HC-CSC", "assay_type": "cell-based", "settings": "24 h"}, "Caco-2/BBe cells": {"system": "Caco-2/BBe cells", "experiment": "Cell cycle control phospho-antibody array", "assay_type": "cell-based, human", "settings": "24 h, p < 0.01"}, "AOM/DSS-induced CAC mice": {"system": "AOM/DSS-induced CAC mice", "experiment": "AOM/DSS-induced CAC mouse model", "assay_type": "in vivo", "settings": "oral 5 mg/kg every 2 days, day 60"}, "[4]": {"system": "intestinal microbiota of AOM/DSS-induced CAC mice", "experiment": "Intestinal microbiota analysis in AOM/DSS-induced CAC mice", "assay_type": "in vivo, mouse", "settings": "feces day 60"}, "A2A adenosine": {"biological_target": "A2A adenosine (Homo sapiens, UniProt P29274)", "sequence (P29274 whole entry)": "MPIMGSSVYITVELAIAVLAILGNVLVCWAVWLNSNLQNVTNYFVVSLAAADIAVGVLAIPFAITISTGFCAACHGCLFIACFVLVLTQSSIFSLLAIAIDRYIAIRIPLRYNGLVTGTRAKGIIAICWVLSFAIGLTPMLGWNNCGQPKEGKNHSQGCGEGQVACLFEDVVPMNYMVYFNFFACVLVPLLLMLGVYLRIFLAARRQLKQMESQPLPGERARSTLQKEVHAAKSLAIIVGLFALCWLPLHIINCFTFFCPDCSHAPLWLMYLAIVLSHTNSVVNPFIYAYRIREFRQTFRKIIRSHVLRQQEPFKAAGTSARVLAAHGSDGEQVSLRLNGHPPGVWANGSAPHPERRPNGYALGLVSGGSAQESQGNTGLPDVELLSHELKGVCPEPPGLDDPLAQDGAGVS", "settings": "M13 20 μM, 100 = no effect"}, "D1 dopamine": {"biological_target": "D1 dopamine (Homo sapiens, UniProt P21728)", "sequence (P21728 whole entry)": "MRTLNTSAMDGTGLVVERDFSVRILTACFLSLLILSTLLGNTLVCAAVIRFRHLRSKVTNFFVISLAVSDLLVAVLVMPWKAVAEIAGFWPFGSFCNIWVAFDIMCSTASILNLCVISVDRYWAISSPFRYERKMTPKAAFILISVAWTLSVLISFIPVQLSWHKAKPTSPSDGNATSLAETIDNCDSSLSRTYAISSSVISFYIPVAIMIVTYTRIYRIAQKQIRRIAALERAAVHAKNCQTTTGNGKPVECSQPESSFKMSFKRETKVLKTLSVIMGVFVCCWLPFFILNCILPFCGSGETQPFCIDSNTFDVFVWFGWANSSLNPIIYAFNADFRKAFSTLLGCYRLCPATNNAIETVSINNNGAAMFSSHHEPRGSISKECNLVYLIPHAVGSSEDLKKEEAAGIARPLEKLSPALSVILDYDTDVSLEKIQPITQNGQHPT", "settings": "M13 20 μM, 100 = no effect"}, "[5]": {"experiment": "Metabolic stability with mouse intestinal microsomes", "settings": "30 min incubation, HPLC"}, "AHR-activation": {"biological_target": "T2, AHR-activation (Homo sapiens, UniProt P35869)", "T2 sequence (P35869 11-848)": "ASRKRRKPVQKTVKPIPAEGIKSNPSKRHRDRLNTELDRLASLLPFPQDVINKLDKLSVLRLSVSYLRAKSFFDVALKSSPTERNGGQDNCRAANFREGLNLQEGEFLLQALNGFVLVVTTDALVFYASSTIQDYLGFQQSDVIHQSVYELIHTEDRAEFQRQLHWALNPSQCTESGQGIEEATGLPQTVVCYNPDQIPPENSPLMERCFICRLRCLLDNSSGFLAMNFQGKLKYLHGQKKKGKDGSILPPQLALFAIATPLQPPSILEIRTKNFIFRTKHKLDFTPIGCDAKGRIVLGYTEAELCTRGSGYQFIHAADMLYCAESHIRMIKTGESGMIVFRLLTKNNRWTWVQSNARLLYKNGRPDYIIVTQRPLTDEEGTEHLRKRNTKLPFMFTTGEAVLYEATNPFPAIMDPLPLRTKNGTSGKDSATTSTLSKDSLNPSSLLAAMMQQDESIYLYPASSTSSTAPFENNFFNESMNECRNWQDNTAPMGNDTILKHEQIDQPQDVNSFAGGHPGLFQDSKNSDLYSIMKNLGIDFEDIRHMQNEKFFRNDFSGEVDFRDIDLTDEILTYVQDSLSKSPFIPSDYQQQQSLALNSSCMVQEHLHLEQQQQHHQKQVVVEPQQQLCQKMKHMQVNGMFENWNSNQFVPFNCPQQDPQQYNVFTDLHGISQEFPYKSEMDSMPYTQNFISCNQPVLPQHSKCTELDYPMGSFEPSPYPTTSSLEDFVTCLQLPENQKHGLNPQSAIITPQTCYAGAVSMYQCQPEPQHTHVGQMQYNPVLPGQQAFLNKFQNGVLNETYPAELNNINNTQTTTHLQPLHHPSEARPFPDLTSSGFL", "experiment": "InVEST fluorescence polarization binding/cell-based activity, AHR-activation", "settings": "M13 20 μM, 100 = no effect"}}, "data": [{"smiles": "CCCCCC(CC(=O)CCc1ccc(O)c(OC)c1)SC[C@H](NC(=O)CC[C@H](N)C(=O)O)C(=O)NCC(=O)O", "note": "(stereo partly drawn) [M13, 5-glutathione-6-shogaol]", "values": [{"measurement": "% Activity Data 1", "setting": "beta1 adrenergic; repetition 1", "result": 120, "unit": "%"}, {"measurement": "% Activity Data 2", "setting": "beta1 adrenergic; repetition 2", "result": 116, "unit": "%"}, {"measurement": "% Activity Data 1", "setting": "D3 dopamine; repetition 1", "result": 96, "unit": "%"}, {"measurement": "% Activity Data 2", "setting": "D3 dopamine; repetition 2", "result": 100, "unit": "%"}, {"measurement": "% Activity Data 1", "setting": "Muscarinic M1; repetition 1", "result": 111, "unit": "%"}, {"measurement": "% Activity Data 2", "setting": "Muscarinic M1; repetition 2", "result": 113, "unit": "%"}, {"measurement": "% Activity Data 1", "setting": "Muscarinic M2; repetition 1", "result": 93, "unit": "%"}, {"measurement": "% Activity Data 2", "setting": "Muscarinic M2; repetition 2", "result": 115, "unit": "%"}, {"measurement": "% Activity Data 1", "setting": "Opioid mu; repetition 1", "result": 98, "unit": "%"}, {"measurement": "% Activity Data 2", "setting": "Opioid mu; repetition 2", "result": 96, "unit": "%"}, {"measurement": "% Activity Data 1", "setting": "Opioid kappa; repetition 1", "result": 95, "unit": "%"}, {"measurement": "% Activity Data 2", "setting": "Opioid kappa; repetition 2", "result": 93, "unit": "%"}, {"measurement": "% Activity Data 1", "setting": "5-HT1A; repetition 1", "result": 102, "unit": "%"}, {"measurement": "% Activity Data 2", "setting": "5-HT1A; repetition 2", "result": 100, "unit": "%"}, {"measurement": "% Activity Data 1", "setting": "5-HT2A; repetition 1", "result": 99, "unit": "%"}, {"measurement": "% Activity Data 2", "setting": "5-HT2A; repetition 2", "result": 98, "unit": "%"}, {"measurement": "relative contents of M13 before and after incubation", "setting": "[1]", "result": "consistent"}, {"measurement": "kinetic solubility", "setting": "[2]", "result": "> 200", "unit": "µM"}, {"measurement": "thermodynamic (or equilibrium) solubility", "setting": "Thermodynamic", "result": 1390.03, "unit": "µM"}, {"measurement": "LogD7.4", "setting": "Log D7.4 shake-flask", "result": "−1.75"}, {"measurement": "pKa1", "setting": "pKa determination", "result": 3.24}, {"measurement": "pKa2", "setting": "pKa determination", "result": 9.12}, {"measurement": "pKa3", "setting": "pKa determination", "result": 10.42}, {"measurement": "IC50", "setting": "HIEC-6 cells", "result": "> 100", "unit": "µM"}, {"measurement": "IC50", "setting": "HCT-116 cells; HCT-116, MTT", "result": 40.1, "unit": "µM"}, {"measurement": "fold by which IC50 against HIEC-6 is higher than against HCT-116", "setting": "HCT-116 cells; MTT", "result": 2.5, "unit": "fold"}, {"measurement": "fold by which IC50 against HIEC-6 is higher than against HC-CSC", "setting": "[3]", "result": 5.8, "unit": "fold"}, {"measurement": "IC50", "setting": "[3]; HC-CSC", "result": 17.4, "unit": "µM"}, {"measurement": "CDC25A expression compared with the control and NL groups", "setting": "Caco-2/BBe cells", "result": "down-regulated"}, {"measurement": "phosphorylated CDC25A (p-CDC25A) compared with the control and NL groups", "setting": "Caco-2/BBe cells", "result": "down-regulated"}, {"measurement": "number of tumors compared with the AOM/DSS group", "setting": "AOM/DSS-induced CAC mice", "result": "failed to reduce"}, {"measurement": "unique species (Venn diagram vs WT and AOM/DSS groups)", "setting": "[4]", "result": "three"}, {"measurement": "% Activity Data 1", "setting": "A2A adenosine; repetition 1", "result": 99, "unit": "%"}, {"measurement": "% Activity Data 2", "setting": "A2A adenosine; repetition 2", "result": 100, "unit": "%"}, {"measurement": "% Activity Data 1", "setting": "D1 dopamine; repetition 1", "result": 100, "unit": "%"}, {"measurement": "% Activity Data 2", "setting": "D1 dopamine; repetition 2", "result": 116, "unit": "%"}, {"measurement": "% of the input retained after incubation with mouse intestinal microsomes", "setting": "[5]", "result": 86, "unit": "%"}, {"measurement": "% Activity Data 1", "setting": "AHR-activation; repetition 1", "result": 100, "unit": "%"}, {"measurement": "% Activity Data 2", "setting": "AHR-activation; repetition 2", "result": 101, "unit": "%"}]}]}
